Experimental data reported in publication PMC7827481, “Development of A Continuous Fluorescence-Based Assay for N-Terminal Acetyltransferase D” (International Journal of Molecular Sciences, 2021).

Experiments:
[1] = molecular target: T1, N-terminal acetyltransferase D (NatD) (Homo sapiens, UniProt Q86UY6); assay: ThioGlo4 fluorescence acetyltransferase assay; format: biochemical
T1 construct: gene NAA40; full-length human NatD, untagged

[2] = molecular target: T1, N-terminal acetyltransferase D (NatD); assay: ThioGlo4 fluorescence acetyltransferase assay; confirmed by MALDI-MS (IC50 […]); format: biochemical
[3] = molecular target: T1, N-terminal acetyltransferase D (NatD); assay: MALDI-MS acetylation inhibition at […] (also […], […] in fluorescence assay); format: biochemical
[4] = molecular target: T1, N-terminal acetyltransferase D (NatD); assay: ThioGlo4 fluorescence acetyltransferase assay; confirmed by MALDI-MS ([…] at […]); format: biochemical
[5] = system: CC(=O)SCCNC(=O)CCNC(=O)[C@H](O)C(C)(C)COP(=O)(O)OP(=O)(O)OC[C@H]1O[C@@H](n2cnc3c(N)ncnc32)[C@H](O)[C@@H]1OP(=O)(O)O; assay: purified protein; details: AcCoA binding site

## C[C@H](NC(=O)/C(C#N)=C/c1ccc(O)c(O)c1)c1ccccc1 [AG 835]
[1]
  IC50: 38 ± 2 µM

## O=C(O)C1=CC(=C(c2ccc(O)c(C(=O)O)c2)c2ccc(O)c(C(=O)O)c2)C=CC1=O [P1401K09, aurintricarboxylic acid]
[2]
  IC50: 1.5 ± 0.1 µM

## Nc1c(S(=O)(=O)O)cc(Nc2ccc(Nc3nc(Cl)nc(Nc4cccc(S(=O)(=O)O)c4)n3)c(S(=O)(=O)O)c2)c2c1C(=O)c1ccccc1C2=O [P1404C10, Reactive blue 2]
[3]
  inhibition at 10 µM: 100%

## C[C@@H](NC(=O)/C(C#N)=C/c1ccc(O)c(O)c1)c1ccccc1 [P1404L15, tyrphostin B44(-)]
[4]
  IC50: 63 ± 4 µM

## N-terminal acetyltransferase D (NatD) (Homo sapiens)
[5]
  Km: 0.5 ± 0.06 µM
